Active and inactive are the calls of the source. Cut-off read from the data, not from the text of the source: actives have a measured IC50 and inactives only a lower limit.

In the assay the target is Envelope glycoprotein gp160 (Human immunodeficiency virus 1, UniProt Q6QLK5). Nature of the assay: cell-free HIV fusion peptide-binding blockers – biochemical, uHTS, fluorescence dequenching, […] (AID 1986).
Chain of Envelope glycoprotein gp160 (Q6QLK5 whole entry, the tested form may be a part): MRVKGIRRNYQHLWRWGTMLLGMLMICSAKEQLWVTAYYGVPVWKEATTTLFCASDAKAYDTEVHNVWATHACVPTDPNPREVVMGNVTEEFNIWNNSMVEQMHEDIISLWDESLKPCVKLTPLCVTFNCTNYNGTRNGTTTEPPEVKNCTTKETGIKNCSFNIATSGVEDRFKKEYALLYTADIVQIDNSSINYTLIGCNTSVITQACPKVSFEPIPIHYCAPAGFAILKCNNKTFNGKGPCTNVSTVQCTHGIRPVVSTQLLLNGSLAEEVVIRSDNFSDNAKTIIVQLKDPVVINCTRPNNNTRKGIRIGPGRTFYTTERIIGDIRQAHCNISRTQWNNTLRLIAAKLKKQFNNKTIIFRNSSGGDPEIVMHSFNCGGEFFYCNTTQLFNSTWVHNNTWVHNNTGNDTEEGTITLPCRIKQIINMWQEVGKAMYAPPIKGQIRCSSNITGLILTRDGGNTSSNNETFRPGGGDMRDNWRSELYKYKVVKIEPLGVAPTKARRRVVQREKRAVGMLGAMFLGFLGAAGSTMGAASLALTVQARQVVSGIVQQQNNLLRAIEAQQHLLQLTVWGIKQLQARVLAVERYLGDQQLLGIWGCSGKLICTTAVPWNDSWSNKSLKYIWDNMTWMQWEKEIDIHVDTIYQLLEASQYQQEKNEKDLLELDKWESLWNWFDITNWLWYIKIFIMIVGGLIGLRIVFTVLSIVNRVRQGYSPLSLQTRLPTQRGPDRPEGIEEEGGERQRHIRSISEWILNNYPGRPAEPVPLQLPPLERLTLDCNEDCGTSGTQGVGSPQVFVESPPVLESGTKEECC
As a reminder, the IC50 is the concentration at which inhibition is half-maximal. In the case of `O=C(O)/C=C/C(=O)Nc1ccc(C2(c3ccc(NC(=O)/C=C/C(=O)O)cc3)c3ccccc3-c3ccccc32)cc1`, the IC50 was 15 µM (active).
In the case of `O=C(COc1cccc2ccccc12)Nc1ccc(Cl)cc1C(=O)O`, the IC50 is 31.3 µM (active).
Regarding `O=C(O)C(c1ccccc1)N1C(=O)/C(=C\c2ccc(O)c(O)c2)SC1=S` (stereo unspecified), the IC50 was 13.2 µM (active).
Take `Cc1ccc(Cl)cc1N1CCN(C(=O)Cc2c(C(=O)O)[nH]c3ccc(Cl)cc23)CC1`: the IC50 is 24.5 µM (active).
`Cc1ccc(N2C(=O)/C(=C/c3ccc(CN(CCC#N)S(C)(=O)=O)o3)C(=O)NC2=S)cc1C`: the IC50 was 21.6 µM (active).
Consider `COc1ccc2c(c1)cc(C(=O)N/N=C/c1c(O)c(C(=O)O)cc3ccccc13)n2C`, for which the concentration for half-maximal inhibition (IC50) was 7.59 µM (active).

For the origin of these results see ChEMBL document CHEMBL1201862, “PubChem BioAssay data set” (2004).
